In US11992479B2, “R-fadrozole for use in the treatment of aldostonerism” (priority 2018, dated 2024):
Where two headings read alike, the source gives them in different places. Marks after values point to notes of the source that are not given here.

Key:
plasma aldosterone = conditions: for Plasma levels of Aldosterone: mean ± SEM
Source text: (§1) There were 6 subjects treated with each dose and twelve subjects treated with placebo (two placebo-treated-subjects included with each dose group).
(§2) The diet consisted of 70-80 mEq/day of sodium and 80-90 mEq/day of potassium. Blood samples were obtained daily at the time points indicated in the accompanying Tables for measurements of aldosterone, 11β-deoxycorticosterone (DOC), and potassium (K^+). All of the blood samples were obtained while the subjects were seated in a resting state.
Statistical evaluations of the hormonal responses was performed using the two-tailed, paired Student's t-test to evaluate within treatment group data, and data from between treatment groups utilized the two-tailed t-test equal variance model.

[1] = up until 225° C., TGA/DSC
Description: The thermogravimetric analysis and differential scanning calorimetry (TGA/DSC) studies were performed using a Mettler Toledo TGA/DSC1 STARe System with a 34-position auto sampler. The samples were made using AI crucibles (40 μL; pierced). Typically 5-10 mg of sample was loaded into a pre-weighed Al crucible and was kept at 30° C. for 5 minutes, after which it was heated at 10° C./min from 30° C. to 350° C. A nitrogen purge of 40 ml/min was maintained over the sample. […] No corrections were applied to the thermogram.

potassium = conditions: mean ± SEM
Source text: as §1, §2

[2] = tested on: 11β-deoxycorticosterone (DOC); conditions: once daily DP13, 4-16 mg
Source text: as §2
DOC was quantified by an LC-MS/MS methodology. In preparation the steroids were extracted using the Absolute/DQStereo17 Kit from Biocrates Life Sciences AG, Innsbruck, Austria. The steroids were extracted and subjected to LC-MS/MS analysis according to the manufacturer's instructions. The triple quadrupole mass spectrometer (Waters 1-Class 2D UPLC Xevo TQ-S was calibrated using the standards provided in the kit. The assays were performed as provided by the manufacturers.

cortisol = assay: ACTH (Synacten) stress test: cortisol response; conditions: 16 mg/day
Description: For a stress test, on day 1 of the single dose phase of the study or on day 7 of the multiple dose phase of the study an ACTH (Synacten) stress test was initiated as follows. […] Blood samples were obtained 60 min post-Synacten. The samples were analyzed for aldosterone and 11β-deoxycorticosterone (DOC) by the Clinical Chemistry Unit at the University Hospital Inselspital Bern, Bern Switzerland. Aldosterone was measured using the Liaison® chemiluminescent immunoassay kit supplied by DiaSorin S.p.A. Italy. Because this assay system uses specific monoclonal antibodies for aldosterone there are no cross reactions with other major potential reactants in the serum samples. The assays were performed according to the instructions provided by the manufacturer.
Serum cortisol, estradiol, testosterone, and follicle stimulating hormone (FSH) were measured by Covance's diagnostic unit, Harrogate, UK with the ADVIA Centaur®CP system (Siemens AG). […] The ADVIA Centaur enhanced estradiol assay is a fully automated, monoclonal competitive, chemiluminescent immunoassay, and has a sensitivity of 10 pg/ml. […] The ADVIA Centaur®CP testosterone assay is a competitive, solid phase immunoassay using direct chemiluminescent technology. All of the above assays were conducted as described by the manufacture.

[3] = tested on: follicle stimulating hormone (FSH); conditions: for Serum FSH: mean ± SEM
Description: (§3) All of the above assays used for measuring serum estradiol, testosterone, and FSH levels were conducted as described by the manufacture.

testosterone = conditions: for Serum Testosteron: mean ± SEM
Description: as §3

estradiol = conditions: for Serum Estradiol: mean ± SEM
Description: as §3

[4] = Description: The Dynamic Vapour Sorption (DVS) studies were performed using a Surface Measurement Systems Ltd. DVS-1 No Video. The sample was loaded into a balance pan, typically 20-30 mg, and equilibrated at 0% RH. […] After completion of the sorption cycle, the sample was dried using the same method. The software used for data collection was DVSWin v3.01 No Video. Data analysis was performed using DVS Standard Analysis Suite v6.3.0 (Standard).
[5] = tested on: ACTH-stimulated aldosterone; conditions: for Plasma aldosterone, Difference Post-ACTH vs Pre-ACTH: Day 1
[6] = 4 mg once daily, Day 2 (08:00 h)
[7] = 8 mg once daily, Day 2 (08:00 h)
[8] = 16 mg once daily, Day 2 (08:00 h)
[9] = 4 mg once daily, Day 1 (08:00 h), pretreatment
[10] = 8 mg once daily, Day 1 (08:00 h), pretreatment
[11] = 16 mg once daily, Day 1 (08:00 h), pretreatment
[12] = 4 mg once daily, Day 9 (08:00 h)
[13] = 8 mg once daily, Day 9 (08:00 h)
[14] = 16 mg once daily, Day 9 (08:00 h)
[15] = once-daily oral dosing with 4, 8, or 16 mg

SMILES: N#Cc1ccc([C@H]2CCCc3cncn32)cc1.O=P(O)(O)O [DP13, (R)-(+)-5-(p-cyanophenyl)-5,6,7,8-tetrahydroimidazolium[1,5-a]pyridine dihydrogen phosphate]
- suppression of plasma aldosterone compared to placebo (plasma aldosterone; 1 mg dose): 52%
- suppression of plasma aldosterone compared to pretreatment values (plasma aldosterone; 1 mg dose, 18 and 24 hours after the last once daily dose on day 8 (so in the source)): 18%
- suppression of plasma aldosterone compared to placebo (plasma aldosterone; 2 mg dose): 61%
- suppression of plasma aldosterone compared to pretreatment values (plasma aldosterone; 2 mg dose, 18 and 24 hours after the last once daily dose on day 8 (so in the source)): 39%
- Plasma levels of Aldosterone (plasma aldosterone; 4 mg once daily oral, 8 days, Day 1, 08:00 h, pretreatment): 306.2 ± 59.0 pmol/L
- Plasma levels of Aldosterone (plasma aldosterone; [6]): 198.4 ± 43.4^b,d pmol/L
- Plasma levels of Aldosterone (plasma aldosterone; 4 mg once daily, Day 8, 14:00 h): 166.2 ± 17.9^c,d pmol/L
- Plasma levels of Aldosterone (plasma aldosterone; 4 mg once daily, Day 9, 08:00 h (24 h after last dose)): 334.9 ± 53.3 pmol/L
- plasma aldosterone versus placebo control (plasma aldosterone; 4 mg/day oral, day 9, twenty-four hours after the last of 8 daily doses): failed to lower the plasma aldosterone level below the level of the placebo control
- Plasma levels of Aldosterone (plasma aldosterone; 8 mg once daily oral, 8 days, Day 1, 08:00 h, pretreatment): 271.4 ± 31.5 pmol/L
- Plasma levels of Aldosterone (plasma aldosterone; [7]): 118.0 ± 12.4^b,d pmol/L
- Plasma levels of Aldosterone (plasma aldosterone; 8 mg once daily, Day 8, 14:00 h): 91.9 ± 7.5^c,d pmol/L
- Plasma levels of Aldosterone (plasma aldosterone; 8 mg once daily, Day 9, 08:00 h (24 h after last dose)): 186.4 ± 22.1^d pmol/L
- suppression of plasma aldosterone compared to pretreatment values (plasma aldosterone; 8 mg once daily, twenty-four hours after the last dose on day 8): 32%
- Plasma levels of Aldosterone (plasma aldosterone; 16 mg once daily oral, 8 days, Day 1, 08:00 h, pretreatment): 314.6 ± 48.6 pmol/L
- Plasma levels of Aldosterone (plasma aldosterone; [8]): 108.4 ± 13.4^b,d pmol/L
- Plasma levels of Aldosterone (plasma aldosterone; 16 mg once daily, Day 8, 14:00 h): 100.9 ± 8.3^c,d pmol/L
- Plasma levels of Aldosterone (plasma aldosterone; 16 mg once daily, Day 9, 08:00 h (24 h after last dose)): 156.0 ± 26.8^a,d pmol/L
- suppression of plasma aldosterone compared to pretreatment values (plasma aldosterone; 16 mg once daily, twenty-four hours after the last dose on day 8): 50%
- Plasma levels of Aldosterone (plasma aldosterone; single dose 1 mg, Day 1, 08:00 h, pretreatment): 171 ± 8.1 pmol/L
- Plasma levels of Aldosterone (plasma aldosterone; single dose 1 mg, Day 1, 14:00 h): 118 ± 8.4^e pmol/L
- Plasma levels of Aldosterone (plasma aldosterone; single dose 1 mg, Day 1, 20:00 h): 104 ± 4.9^e pmol/L
- Plasma levels of Aldosterone (plasma aldosterone; single dose 1 mg, Day 2, 08:00 h): 141 ± 14^e pmol/L
- Plasma levels of Aldosterone (plasma aldosterone; single dose 2 mg, Day 1, 08:00 h, pretreatment): 203 ± 13.8 pmol/L
- Plasma levels of Aldosterone (plasma aldosterone; single dose 2 mg, Day 1, 14:00 h): 129 ± 8.8^e pmol/L
- Plasma levels of Aldosterone (plasma aldosterone; single dose 2 mg, Day 1, 20:00 h): 114 ± 9.2^e pmol/L
- Plasma levels of Aldosterone (plasma aldosterone; single dose 2 mg, Day 2, 08:00 h): 124 ± 9^e pmol/L
- Mass loss upon heating [1]: 1.4%
- Blood levels of potassium (potassium; [9]): 4.4 ± 0.6 mmol/L
- Blood levels of potassium (potassium; 4 mg once daily, Day 8, 08:00 h pre-dose): 4.8 ± 0.8^a,b mmol/L
- Blood levels of potassium (potassium; [10]): 4.3 ± 0.07 mmol/L
- Blood levels of potassium (potassium; 8 mg once daily, Day 8, 08:00 h pre-dose): 4.6 ± 0.09^a,b mmol/L
- Blood levels of potassium (potassium; [11]): 4.4 ± 0.11 mmol/L
- Blood levels of potassium (potassium; 16 mg once daily, Day 8, 08:00 h pre-dose): 4.7 ± 0.06^a,b mmol/L
- highest individual DOC value [2]: 1.92 ng/mL
- highest mean increase in DOC [2]: 0.52 ng/mL
- cortisol before ACTH, the one subject below guideline (cortisol): 324 nmol/L
- cortisol in response to ACTH, the one subject below guideline (cortisol; guideline 552 nmol/L): 504 nmol/L
- Serum FSH [3, 9]: 2.7 ± 0.22 IU/L
- Serum FSH [3, 6]: 2.7 ± 0.27 IU/L
- Serum FSH [3, 12]: 2.7 ± 0.27 IU/L
- Serum FSH [3, 10]: 4.3 ± 0.94 IU/L
- Serum FSH [3, 7]: 4.1 ± 0.79 IU/L
- Serum FSH [3, 13]: 4.1 ± 0.91 IU/L
- Serum FSH [3, 11]: 2.6 ± 0.43 IU/L
- Serum FSH [3, 8]: 2.5 ± 0.43 IU/L
- Serum FSH [3, 14]: 2.5 ± 0.43 IU/L
- effect on circulating FSH [3, 15]: nor increased circulating testosterone or FSH
- Serum Testosteron (testosterone; [9]): 17 ± 1.9 nM/L
- Serum Testosteron (testosterone; [6]): 18 ± 1.9 nM/L
- Serum Testosteron (testosterone; [12]): 15 ± 1.5^b nM/L
- Serum Testosteron (testosterone; [10]): 18 ± 1.7 nM/L
- Serum Testosteron (testosterone; [7]): 21 ± 6.2^a nM/L
- Serum Testosteron (testosterone; [13]): 16 ± 1.4^a nM/L
- Serum Testosteron (testosterone; [11]): 17 ± 1.9 nM/L
- Serum Testosteron (testosterone; [8]): 20 ± 2.0^a nM/L
- Serum Testosteron (testosterone; [14]): 17 ± 1.7 nM/L
- effect on circulating testosterone (testosterone; [15]): nor increased circulating testosterone or FSH
- Serum Estradiol (estradiol; [9]): 98 ± 10.2 pM/L
- Serum Estradiol (estradiol; [6]): 92 ± 9.8 pM/L
- Serum Estradiol (estradiol; [12]): 127 ± 8.3^a,b pM/L
- Serum Estradiol (estradiol; [10]): 90.0 ± 9.5 pM/L
- Serum Estradiol (estradiol; [7]): 90.0 ± 12.1 pM/L
- Serum Estradiol (estradiol; [13]): 113 ± 8.3^a pM/L
- Serum Estradiol (estradiol; [11]): 97.4 ± 15.3 pM/L
- Serum Estradiol (estradiol; [8]): 97.0 ± 9.4 pM/L
- Serum Estradiol (estradiol; [14]): 114.0 ± 8.5 pM/L
- change of estradiol (estradiol; 4 and 8 mg doses after 8 days of treatment): slightly increased
- effect on estradiol (estradiol; [15]): neither inhibited estradiol
- crystalline form upon DVS treatment [4]: crystalline form does not change upon DVS treatment
- Plasma levels of Aldosterone, Pre-ACTH ([5]; 4 mg once daily, Day 7, 09:30 h ([…] post-dose), mean ± SEM): 203.5 ± 26.7 pmol/L
- Plasma levels of Aldosterone, Post-ACTH ([5]; 4 mg once daily, Day 7, 11:00 h, ACTH i.v. at 10:00 h, mean ± SEM): 181.1 ± 14.3^b pmol/L
- Plasma levels of Aldosterone, Pre-ACTH ([5]; 8 mg once daily, Day 7, 09:30 h, mean ± SEM): 121.0 ± 14.0 pmol/L
- Plasma levels of Aldosterone, Post-ACTH ([5]; 8 mg once daily, Day 7, 11:00 h, mean ± SEM): 115.5 ± 10.6^b pmol/L
- Plasma levels of Aldosterone, Pre-ACTH ([5]; 16 mg once daily, Day 7, 09:30 h, mean ± SEM): 102.2 ± 13.4 pmol/L
- Plasma levels of Aldosterone, Post-ACTH ([5]; 16 mg once daily, Day 7, 11:00 h, mean ± SEM): 103.4 ± 11.1^b pmol/L
- effect on aldosterone increase elicited by ACTH ([5]; 4, 8, or 16 mg once daily oral, day 7): able to prevent the 2- to 3-fold increases in aldosterone elicited by ACTH
- Plasma aldosterone, Difference Post-ACTH vs Pre-ACTH ([5]; single dose 1 mg): (−6) pmol/L
- Plasma levels of Aldosterone, Pre-ACTH ([5]; single dose 1 mg, Day 1, 09:30 h, mean ± SD, N = six): 99 ± 13 pmol/L
- Plasma levels of Aldosterone, Post-ACTH ([5]; single dose 1 mg, Day 1, 11:00 h, mean ± SD, N = six): 94 ± 6^a pmol/L
- Plasma aldosterone, Difference Post-ACTH vs Pre-ACTH ([5]; single dose 2 mg): (−12) pmol/L
- Plasma levels of Aldosterone, Pre-ACTH ([5]; single dose 2 mg, Day 1, 09:30 h, mean ± SD, N = six): 132 ± 22 pmol/L
- Plasma levels of Aldosterone, Post-ACTH ([5]; single dose 2 mg, Day 1, 11:00 h, mean ± SD, N = six): 120 ± 20^a pmol/L
